Counter-ions that a name gives are not always drawn.

A short description of the series: Solubility of sertraline salt forms. The conditions noted are these: medium not given; aqueous solubility.
For the compound `CN[C@H]1CC[C@@H](c2ccc(Cl)c(Cl)c2)c2ccccc21` [Sertraline lactate Form A, sertraline lactate], the Solubility is listed as 1.9 mg/mL. In the case of `CN[C@H]1CC[C@@H](c2ccc(Cl)c(Cl)c2)c2ccccc21` [sertraline HBr salt, sertraline HBr], the Solubility turned out to be 0.6 mg/mL. The figure for “sertraline besylate [Sertraline besylate salt]” is 0.3 mg/mL; for “sertraline mesylate [Sertraline mesylate Form C]” it is 4.2 mg/mL.

A word on the Solubility: it is how much of the substance goes into solution per volume.

For the origin of these results see patent US7186863B2, “Sertraline compositions” (TransForm Pharmaceuticals, Inc., priority 2003, dated 2007).
